Patent US9162992B2, “Compounds and compositions for treatment of breathing control disorders or diseases” (GALLEON PHARMACEUTICALS, INC., priority 2010, dated 2015)
≈ marks a conversion by molar mass, not a printed value. Where “and” joins values, the source holds several entries; their conditions need not be identical. Equal entries are not always repeated. Where two headings read alike, the source gives them in different places.

Assays:
[1] = Solubility as a function of pH (100 mM citric acid, room temperature); type: physicochemical; details: for solubility / solubility thermodynamic: thermodynamic from solid; for solubility thermodynamic: 100 mM citric acid buffer, read-out: (XXXVI) concentration; for (XXXVI) concentration: not saturated
Description: A solution of (XXXVI) of concentration ˜[…] in 100 mM citric acid at pH 2.5 was prepared. About 150 μL aliquots of this solution were transferred into 6 separate glass HPLC vials. Each aliquot was titrated with 6N sodium hydroxide to different pH values in the range 3-5.5 (Table 12A). All the samples, including the solution at pH 2.5, were shaken overnight at room temperature using a gyratory shaker. After shaking, the samples were evaluated visually for the presence of precipitate and were then spin filtered through 0.45 μm syringe tip filters (4 mm diameter) at 3,000 rpm for 20 min. The final pH values of the filtrates were measured. The filtrates were then diluted appropriately and analyzed for (XXXV) concentration using the HPLC assay.
This equation is a simplified representation of solubility equilibrium for weak bases that assumes that total solubility is much larger than the solubility of the free base in the pH range of interest: log S=log S0+log(1+10^pKa-pH) Equation 1 where, ‘S’ is total solubility; ‘S0’ is the solubility of the free base.

[2] = Solubility in solvents and IV solutions; type: physicochemical
Description: The solubility of (XXXXVI) and XXXV was evaluated in various solvents and IV solutions. Due to limits on the API supply at the time the study was conducted, most of the solvent systems were evaluated to a level of only 100 mg/mL even if the solution was not saturated at this level. Only in water was an attempt made to reach saturation solubility, regardless of how high that solubility might be. Solubility of the salt/free base in each solvent was evaluated in duplicate.
For solubility in water, drug was added with intermittent shaking to ensure that excess undissolved drug is present indicating saturation […]. The filtrates were diluted appropriately and analyzed for (XXXV) concentration by HPLC.

[3] = target: T1, rat KCNK3/TASK-1 (Rattus norvegicus, UniProt O54912); assay: Thallium flux through rat TASK-1 (KCNK3-CHO cells); type: cell-based; details: Tl+ flux; 3 nM to 30 μM; read-out: rTASK-1 IC50
T1 construct: expressed in transfected cells; host or cells: CHO cells (tetracycline-inducible)
T1 sequence (O54912 whole entry): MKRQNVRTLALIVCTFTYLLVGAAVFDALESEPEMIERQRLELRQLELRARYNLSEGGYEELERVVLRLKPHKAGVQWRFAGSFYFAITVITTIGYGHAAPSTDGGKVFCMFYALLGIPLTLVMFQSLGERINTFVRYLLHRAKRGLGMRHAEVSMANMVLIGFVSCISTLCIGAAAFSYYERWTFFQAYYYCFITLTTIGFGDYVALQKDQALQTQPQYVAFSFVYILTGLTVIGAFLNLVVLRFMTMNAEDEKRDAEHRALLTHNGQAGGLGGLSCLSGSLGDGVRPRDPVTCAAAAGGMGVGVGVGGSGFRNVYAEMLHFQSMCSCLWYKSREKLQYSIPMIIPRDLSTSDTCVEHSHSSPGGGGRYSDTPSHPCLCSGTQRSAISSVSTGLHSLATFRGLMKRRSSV
Description: CHO cells expressing recombinant tetracycline-inducible rat KCNK3/TASK-1 (KCNK3-CHO cells) were plated in poly-D-lysine coated 384-well plates at a density of 6,000 cells/well (50 μl/well of 120,000 cells/mL) and allowed to incubate for 72 hrs in the presence of 5% CO2 and 1 μg/mL tetracycline at 30° C. HEK cells expressing recombinant tetracycline-inducible human KCNK9/TASK-3 (KCNK9-HEK cells) were plated at a density of 15,000 cells per well (50 μl/well, 300,000 cells/mL) and incubated overnight at 37° C. and 5% CO2 in the presence of 1 μg/mL tetracycline.
Drug plates were generated from 10 mM 100% DMSO mother plates. Compounds were transferred to 384-well drug plates and titrated with sequential 1:3 dilutions in 100% DMSO for a total of 9 dilutions. A dilution plate is made by taking 2.4 μl from the mother plate and adding to […] of assay buffer for a 12% DMSO dilution plate. From this dilution plate, a final daughter plate is generated by taking 1 μA of the dilution plate and adding to 40 μA of assay buffer for a final DMSO concentration of 0.3%. Each compound was evaluated in duplicate and the concentration range evaluated was 3 nM to 30 μM.
When thallium was added to extracellular solution with a stimulus to open channels, Tl^+ flowed down its concentration gradient into the cells and channel activity was detected with an indicator dye, FluxOR™, that increased in cytosolic fluorescence. The FluxOR™ indicator dye was loaded into cells as a membrane permeable acetoxymethyl ester. On the day of each assay, FluxOR™ assay buffer was made fresh from Hank's Balanced Saline Solution (HBSS) buffered with 20 mM HEPES and pH adjusted to 7.4 with NaOH. Dye loading solution was prepared per manufacturer's instructions, and 25 μl of dye solution applied to each well with a multidropper after plating medium was removed manually from cells. Dye was allowed to load for 90 minutes at room temperature in the dark.
After the 90 min dye loading incubation and subsequent manual dye removal, 24 μl of the drug daughter plate was transfer to cell plates by a cybi-well system and then incubated at room temperature for 20 minutes to allow for equilibration within wells. Stimulation buffer was prepared from 5× chloride-free buffer, thallium, and potassium sulfate containing 5 times the desired final assay concentration of 10 mM K^+ 2.8 mM Tl^+. Cell plates were then transferred to an FDSS 6000 kinetic imaging plate reader (Hamamatsu). Fluorescence at 525 nm (excitation 488 nm) was measured for 10 seconds at 1 Hz to establish baseline for the entire plate. After baseline was established, 6 μl/well of stimulation buffer was added and fluorescence signal recorded for another 140 seconds.
From the fluorescence signals in the absence and presence of Galleon compounds, Inhibitory concentration curves were plotted and IC50 values were estimated using a curve fitting algorithm.

## CCCNc1nc(NCCC)nc(N(C)OC)n1 [XXXV, N-(4,6-Bis-n-propylamino-[1,3,5]triazin-2-yl)-N,O-dimethyl-hydroxylamine]
[1]; aqueous buffer
  solubility: 0.18 mg/mL (≈ 0.708 mM)
[1]; pH 3.16, aqueous buffer
  solubility: 50 mg/mL (≈ 197 mM)
[1]; pH 3.46, aqueous buffer
  solubility: 25 mg/mL (≈ 98.3 mM)
[1]; pH 3.5
  pH dependence of solubility: solubility was high at pH 3.5 or lower
[1]; pH 3.86, aqueous buffer
  solubility: 10 mg/mL (≈ 39.3 mM)
[2]; organic solvent or mixture, thermodynamic from solid, solubility
  solubility: > 90 mg/mL
[2]; water, thermodynamic from solid, Solubility
  solubility: ~0.21 mg/mL (≈ 0.826 mM)

## CCCNc1nc(NCCC)nc(N(C)OC)n1.O=S(=O)(O)O [XXXVI, N-(4,6-Bis-n-propylamino-[1,3,5]triazin-2-yl)-N,O-dimethyl-hydroxylamine hydrogen sulfate]
[3]
  IC50: 25 µM
[1]; aqueous buffer, target pH 4.0, final pH 3.79
  solubility thermodynamic: 20.8 mg/mL
[1]; aqueous buffer, target pH 4.5, final pH 4.37
  solubility thermodynamic: 3.46 mg/mL
[1]; aqueous buffer, target pH 5.0, final pH 4.52
  solubility thermodynamic: 2.73 mg/mL
[1]; aqueous buffer, target pH 5.5, final pH 5.02
  solubility thermodynamic: 0.99 mg/mL
[1]; target pH 2.5
  appearance afterwards Shaking: Clear solution
[1]; target pH 2.5, final pH 2.42
  (XXXVI) concentration: 104.1
[1]; target pH 3.0
  appearance afterwards Shaking: Clear solution
[1]; target pH 3.0, final pH 3.00
  (XXXVI) concentration: 99.8
[1]; target pH 3.5
  appearance afterwards Shaking: Clear solution
[1]; target pH 3.5, final pH 3.51
  (XXXVI) concentration: 101.6
[1]; target pH 4.0
  appearance afterwards Shaking: Precipitate
[1]; target pH 4.5
  appearance afterwards Shaking: Precipitate
[1]; target pH 5.0
  appearance afterwards Shaking: Precipitate
[1]; target pH 5.5
  appearance afterwards Shaking: Precipitate
[2]; 0.9% NaCl, listed as (XXXV) hydrogen sulfate salt, hydrogen sulfate
  solubility: >201.4 mg/mL
[2]; 30% PEG-400, listed as (XXXV) hydrogen sulfate salt, hydrogen sulfate
  solubility: >197.0 mg/mL and >198.4 mg/mL
[2]; 30% Propylene Glycol, listed as (XXXV) hydrogen sulfate salt, hydrogen sulfate
  solubility: >89.47 mg/mL
[2]; 70% PEG-400, listed as (XXXV) hydrogen sulfate salt, hydrogen sulfate
  solubility: >85.28 mg/mL and >91.43 mg/mL
[2]; 70% Propylene Glycol, listed as (XXXV) hydrogen sulfate salt, hydrogen sulfate
  solubility: >92.43 mg/mL
[2]; Acetonitrile, listed as (XXXV) hydrogen sulfate salt, hydrogen sulfate
  solubility: 68.5 mg/mL and 67.1 mg/mL
[2]; Ethanol, listed as (XXXV) hydrogen sulfate salt, hydrogen sulfate
  solubility: >212.2 mg/mL
[2]; Methanol, listed as (XXXV) hydrogen sulfate salt, hydrogen sulfate
  solubility: >98.52 mg/mL
[2]; PEG-400 (100%), listed as (XXXV) hydrogen sulfate salt, hydrogen sulfate
  solubility: 35.74 mg/mL
[2]; Propylene Glycol (100%), listed as (XXXV) hydrogen sulfate salt, hydrogen sulfate
  solubility: >94.65 mg/mL
[2]; Water, listed as (XXXV) hydrogen sulfate salt, hydrogen sulfate
  solubility: 414.5 mg/mL and 441.5 mg/mL
[2]; aqueous with cosolvent or surfactant or cyclodextrin, thermodynamic from solid, 30% PEG-400, read-out: Solubility
  solubility: ~198 mg/mL
[2]; aqueous with cosolvent or surfactant or cyclodextrin, thermodynamic from solid, 30% Propylene Glycol, read-out: Solubility
  solubility: > 93.2 mg/mL
[2]; aqueous with cosolvent or surfactant or cyclodextrin, thermodynamic from solid, 30% and 70% PEG-400, read-out: solubility
  solubility: ≥ 90 mg/mL
[2]; aqueous with cosolvent or surfactant or cyclodextrin, thermodynamic from solid, 30%, 70% and 100% propylene glycol, read-out: solubility
  solubility: ≥ 90 mg/mL
[2]; aqueous with cosolvent or surfactant or cyclodextrin, thermodynamic from solid, 70% PEG-400, read-out: Solubility
  solubility: ≥ 90 mg/mL
[2]; aqueous with cosolvent or surfactant or cyclodextrin, thermodynamic from solid, 70% Propylene Glycol, read-out: Solubility
  solubility: > 87.8 mg/mL
[2]; ethanol and methanol
  solubility: freely soluble
[2]; organic solvent or mixture, thermodynamic from solid, Acetonitrile, read-out: Solubility
  solubility: ~68 mg/mL
[2]; organic solvent or mixture, thermodynamic from solid, Ethanol, read-out: Solubility
  solubility: > 211 mg/mL
[2]; organic solvent or mixture, thermodynamic from solid, Methanol, read-out: Solubility
  solubility: > 109 mg/mL
[2]; organic solvent or mixture, thermodynamic from solid, PEG-400 (100%), read-out: Solubility
  solubility: ~36 mg/mL
[2]; organic solvent or mixture, thermodynamic from solid, Propylene Glycol (100%), read-out: Solubility
  solubility: > 92.1 mg/mL
[2]; saline or isotonic, thermodynamic from solid, 0.9% NaCl, read-out: Solubility
  solubility: > 206 mg/mL
[2]; saline or isotonic, thermodynamic from solid, 5% Dextrose, read-out: Solubility
  solubility: > 201 mg/mL
[2]; saline or isotonic, thermodynamic from solid, IV solutions (0.9% saline and 5% dextrose), read-out: solubility
  solubility: ≥ 200 mg/mL
[2]; water, thermodynamic from solid, Water, read-out: Solubility
  solubility: > 400 mg/mL
[2]; water, thermodynamic from solid, water, IV solutions (0.9% saline and 5% dextrose), ethanol, methanol, 30%, 70% and 100% propylene glycol, read-out: solubility
  solubility: > 90 mg/mL
